The record followed here is patent publication US20240383874A1, “BENZENE RING DERIVATIVE, AND COMPOSITION AND PHARMACEUTICAL USE THEREOF” (Xizang Haisco Pharmaceutical Co., Ltd., priority 2020, published 2024).

Series [1] in a line: Pharmacokinetic test in beagle dogs. The series is classed as in vivo. The conditions noted are these: dog, plasma, oral; male beagle dogs, i.v. 1 mg/kg and i.g. 10 mg/kg, single dose. The method, then: Test objective: a single dose of test compounds was administered to beagle dogs intravenously and intragastrically, and the concentrations of the test compounds in plasma of the beagle dogs were measured to evaluate pharmacokinetic characteristics of the test compounds in the beagle dogs.
Test animals: male beagle dogs, about 8-11 kg, 6 beagle dogs/compound, purchased from Beijing Marshall Biotechnology Co., Ltd.
Test method: on the day of the test, 6 beagle dogs were randomly grouped according to their body weights. The animals were fasted with water available for 12 to 14 hours one day before the administration of a test compound, and were fed 4 hours after the administration. The administration was performed according to Table 10.
Sampling: before and after the administration, 1 ml of blood was taken from the limb veins, and placed in an EDTAK2 centrifuge tube. Centrifugation was carried out at 5000 rpm at 4° C. for 10 min, and the plasma was collected.
Time points for blood collection: 0 min, 5 min, 15 min, 30 min, 1 h, 2 h, 4 h, 6 h, 8 h, 10 h, 12 h and 24 h. Before analysis and detection, all samples were stored at −80° C. The samples were analyzed quantitatively by LC-MS/MS.

Series [2] addresses T1, AR splice variant 7 (AR-V7) (Homo sapiens, UniProt P10275).
T1 construct: host or cells: 22RV1 prostate cancer cells
T1 sequence (P10275 1-644 isoform P10275-3): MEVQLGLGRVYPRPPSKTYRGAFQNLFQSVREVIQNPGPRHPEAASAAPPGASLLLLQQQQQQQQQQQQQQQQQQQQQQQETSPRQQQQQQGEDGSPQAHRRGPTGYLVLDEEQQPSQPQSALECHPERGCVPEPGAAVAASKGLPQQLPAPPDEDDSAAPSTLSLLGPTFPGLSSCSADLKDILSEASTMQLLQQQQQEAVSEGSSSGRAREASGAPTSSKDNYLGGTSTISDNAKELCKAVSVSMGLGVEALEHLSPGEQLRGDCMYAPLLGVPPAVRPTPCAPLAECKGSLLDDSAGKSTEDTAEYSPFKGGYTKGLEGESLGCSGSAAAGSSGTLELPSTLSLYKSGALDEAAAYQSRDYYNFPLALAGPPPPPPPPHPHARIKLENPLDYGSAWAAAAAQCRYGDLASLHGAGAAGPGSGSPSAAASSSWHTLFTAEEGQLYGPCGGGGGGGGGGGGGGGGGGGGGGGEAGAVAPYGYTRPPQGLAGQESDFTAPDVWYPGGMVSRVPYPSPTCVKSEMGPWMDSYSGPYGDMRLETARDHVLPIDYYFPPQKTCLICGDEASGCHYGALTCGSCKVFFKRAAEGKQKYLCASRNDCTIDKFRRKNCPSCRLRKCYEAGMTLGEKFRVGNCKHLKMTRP
The series is described as follows: Degradation experiment on AR splice variant 7 (AR-V7) in 22RV1 cells. The series is classed as cell-based. As to conditions: 24 h, degradation rate 50% relative to vehicle control. The method, then: Prostate cancer cells 22RV1 were purchased from ATCC, the cell medium was 1640+10% FBS, and the cells were cultured in an incubator at 37° C. under 5% CO2. On day 1, the cells in an exponential phase were collected. With a 1% css-FBS phenol red-free medium, the cell suspension was adjusted to a corresponding concentration and plated into a 6-well plate at 1 mL/well and 300000 cells/well. The next day, a 1% css-FBS phenol-free medium containing the compound to be tested was added, a 1% css-FBS phenol-free medium containing 0.2% DMSO was added to one well as DMSO vehicle control, and the 6-well plate was cultured in an incubator at 37° C. under 5% CO2. After 24 h, the cells were digested with pancreatin and collected into a 1.5 mL centrifuge tube. […] The supernatant protein samples were collected, and protein quantification was performed by a BCA method. AR-V7 was detected using fully automatic protein expression quantitative analysis, which involved diluting the protein to be tested to 2 mg/mL. […] The prepared reagents were successively added to an assay plate according to instructions of the kit and detected on an instrument. Western blot band processing was performed using “Compass for SW”, a fully automatic protein expression quantitative analysis software, in which western blot bands were automatically simulated based on signal values. […]

By bioavailability is commonly meant the share of a dose that reaches the circulation, judged against a reference dose that is usually intravenous. The DC50 is the midpoint of the concentration-degradation curve. A lower DC50 goes with degradation at low concentration.

As for `COc1c(Cl)cc(C(C)(C)c2ccc(OCc3ccnc(N4CCC(CN5CCC(C6CCN(c7ccc8c(c7)n(C)c(=O)n8C7CCC(=O)NC7=O)CC6)CC5)CC4)n3)cc2)cc1C#N` (centres unmarked) [Compound 97, 3-chloro-5-(2-(4-((2-(4-((1′-(1-(2,6-dioxopiperidin-3-yl)-3-methyl-2-oxo-2,3-dihydro-1H-benzo[d]imidazol-5-yl)-[4,4′-bipiperidin]-1-yl)methyl)piperidin-1-yl)pyrimidin-4-yl)methoxy)phenyl)propan-2-yl)-2-methoxybenzonitrile], in series [1], the bioavailability is above 15%.

Take `COc1c(Cl)cc(C(C)(C)c2ccc(OCc3ccnc(N4CCC(CN5CCC(C6CCN(c7ccc(C8CCC(=O)NC8=O)cc7)CC6)CC5)CC4)n3)cc2)cc1C#N` (centres unmarked) [Compound 119, 3-chloro-5-(2-(4-((2-(4-((1′-(4-(2,6-dioxopiperidin-3-yl)phenyl)-[4,4′-bipiperidin]-1-yl)methyl)piperidin-1-yl)pyrimidin-4-yl)methoxy)phenyl)propan-2-yl)-2-methoxybenzonitrile]: the DC50 in series [2] worked out at 3.71 µM.
